Source: patent US10696615B2, “Prenylated hydroxystilbenes” (The University of Sydney, priority 2011, dated 2020)

Key:
Type in all cases: cell-based, human
HL-60 (TB) = assay: NCI in vitro cancer screen, Leukemia; conditions: HL-60(TB), Leukemia
K-562 = assay: NCI in vitro cancer screen, Leukemia; conditions: K-562, Leukemia
MOLT-4 = assay: NCI in vitro cancer screen, Leukemia; conditions: MOLT-4, Leukemia
RPMI-8226 = assay: NCI in vitro cancer screen, Leukemia; conditions: RPMI-8226, Leukemia
SR = assay: NCI in vitro cancer screen, Leukemia; conditions: Leukemia
A549/ATCC = assay: NCI in vitro cancer screen, Non-Small Cell Lung Cancer; conditions: Non-Small Cell Lung Cancer
NCI-H322M = assay: as above; conditions: Non-Small Cell Lung Cancer
NCI-H460 = assay: as above; conditions: NCI-H460, Non-Small Cell Lung Cancer
NCI-H522 = assay: as above; conditions: NCI-H522, Non-Small Cell Lung Cancer
COLO 205 = assay: NCI in vitro cancer screen, Colon Cancer; conditions: COLO 205, Colon Cancer
HCC-2998 = assay: NCI in vitro cancer screen, Colon Cancer; conditions: HCC-2998, Colon Cancer
HCT-15 = assay: NCI in vitro cancer screen, Colon Cancer; conditions: HCT-15, Colon Cancer
SF-295 = assay: NCI in vitro cancer screen, CNS Cancer; conditions: SF-295, CNS Cancer
SNB-75 = assay: NCI in vitro cancer screen, CNS Cancer; conditions: SNB-75, CNS Cancer
LOX IMVI = assay: NCI in vitro cancer screen, Melanoma; conditions: Melanoma
MALME-3M = assay: NCI in vitro cancer screen, Melanoma; conditions: MALME-3M, Melanoma
M14 = assay: NCI in vitro cancer screen, Melanoma; conditions: M14, Melanoma
MDA-MB-435 = assay: NCI in vitro cancer screen, Melanoma; conditions: MDA-MB-435, Melanoma
SK-MEL-2 = assay: NCI in vitro cancer screen, Melanoma; conditions: SK-MEL-2, Melanoma
UACC-62 = assay: NCI in vitro cancer screen, Melanoma; conditions: UACC-62, Melanoma
ADR-RES (NCI/ADR-RES) = assay: NCI in vitro cancer screen, Ovarian Cancer; conditions: NCI/ADR-RES, Ovarian Cancer
SK-OV-3 = assay: NCI in vitro cancer screen, Ovarian Cancer; conditions: SK-OV-3, Ovarian Cancer
786-0 = assay: NCI in vitro cancer screen, Renal Cancer; conditions: 786-0, Renal Cancer
A498 = assay: NCI in vitro cancer screen, Renal Cancer; conditions: A498, Renal Cancer
ACHN = assay: NCI in vitro cancer screen, Renal Cancer; conditions: Renal Cancer
RXF-393 = assay: NCI in vitro cancer screen, Renal Cancer; conditions: RXF 393, Renal Cancer
SN12C = assay: NCI in vitro cancer screen, Renal Cancer; conditions: Renal Cancer
UO-31 = assay: NCI in vitro cancer screen, Renal Cancer; conditions: UO-31, Renal Cancer
PC-3 = assay: NCI in vitro cancer screen, Prostate Cancer; conditions: PC-3, Prostate Cancer
[1] = test system: MDA-MB-231 (MDA-MB-231/ATCC); assay: NCI in vitro cancer screen, Breast Cancer; conditions: MDA-MB-231/ATCC, Breast Cancer
T-47D = assay: NCI in vitro cancer screen, Breast Cancer; conditions: Breast Cancer
[2] = Homo sapiens, read-out: LC50 (the source's name)

Structure (SMILES): CC(C)=CCOc1cc(O)cc(/C=C/c2ccc(O)c(O)c2)c1CC=C(C)C [USYDS14, (E)-2-(3-methyl-2-buten-1-yl)-3-(3-methyl-2-butenyloxy)-3′,4′,5-trihydroxystilbene]
- TGI (HL-60 (TB)): 16.3 µM
- GI50 (HL-60 (TB); Homo sapiens): 4.06 µM
- CC50 (HL-60 (TB); [2]): > 100 µM
- GI50 (K-562; Homo sapiens, K562): 833 nM
- CC50 (K-562; Homo sapiens, K562, read-out: LC50 (the source's name)): > 100 µM
- TGI (K-562): 14.2 µM
- GI50 (MOLT-4; Homo sapiens): 4.03 µM
- CC50 (MOLT-4; [2]): > 100 µM
- TGI (MOLT-4): 21 µM
- GI50 (RPMI-8226; Homo sapiens): 4.07 µM
- CC50 (RPMI-8226; [2]): > 100 µM
- TGI (RPMI-8226): 24.5 µM
- GI50 (SR; Homo sapiens): 670 nM
- CC50 (SR; [2]): > 100 µM
- TGI (SR): 24.6 µM
- GI50 (A549/ATCC; Homo sapiens): 4.33 µM
- CC50 (A549/ATCC; [2]): 45.5 µM
- TGI (A549/ATCC): 16.5 µM
- GI50 (NCI-H322M; Homo sapiens): 12.5 µM
- LC50 (50% lethal concentration) (NCI-H322M; Homo sapiens): 52.8 µM
- TGI (NCI-H322M): 25.7 µM
- GI50 (NCI-H460; Homo sapiens): 3.87 µM
- CC50 (NCI-H460; [2]): 51.2 µM
- TGI (NCI-H460): 14.9 µM
- GI50 (NCI-H522; Homo sapiens): 750 nM
- CC50 (NCI-H522; [2]): 5.85 µM
- TGI (NCI-H522): 2.26 µM
- TGI (COLO 205): 28.5 µM
- GI50 (COLO 205; Homo sapiens): 14.6 µM
- CC50 (COLO 205; [2]): 55.7 µM
- TGI (HCC-2998): 10.6 µM
- GI50 (HCC-2998; Homo sapiens): 2900 nM
- CC50 (HCC-2998; [2]): 40.7 µM
- TGI (HCT-15): 10.4 µM
- GI50 (HCT-15; Homo sapiens): 2060 nM
- CC50 (HCT-15; [2]): 43.3 µM
- GI50 (SF-295; Homo sapiens): 3.91 µM
- CC50 (SF-295; [2]): 43.1 µM
- TGI (SF-295): 15.3 µM
- GI50 (SNB-75; Homo sapiens): 1790 nM
- CC50 (SNB-75; [2]): 29.3 µM
- TGI (SNB-75): 7.8 µM
- GI50 (LOX IMVI; Homo sapiens): 1360 nM
- CC50 (LOX IMVI; [2]): 8.35 µM
- TGI (LOX IMVI): 3.37 µM
- GI50 (MALME-3M; Homo sapiens): 3.14 µM
- CC50 (MALME-3M; [2]): 54.8 µM
- TGI (MALME-3M): 21.8 µM
- GI50 (M14; Homo sapiens): 2950 nM
- CC50 (M14; [2]): 50 µM
- TGI (M14): 13.6 µM
- GI50 (MDA-MB-435; Homo sapiens): 373 nM
- CC50 (MDA-MB-435; [2]): 40 µM
- TGI (MDA-MB-435): 8.45 µM
- GI50 (SK-MEL-2; Homo sapiens): 3.72 µM
- LC50 (SK-MEL-2; Homo sapiens): 41.2 µM
- TGI (SK-MEL-2): 12.5 µM
- GI50 (UACC-62; Homo sapiens): 2610 nM
- CC50 (UACC-62; [2]): 39.1 µM
- TGI (UACC-62): 13.2 µM
- GI50 (ADR-RES (NCI/ADR-RES); Homo sapiens): 780 nM
- CC50 (ADR-RES (NCI/ADR-RES); [2]): 49.3 µM
- TGI (ADR-RES (NCI/ADR-RES)): 11.4 µM
- GI50 (SK-OV-3; Homo sapiens): 2850 nM
- CC50 (SK-OV-3; [2]): 37.2 µM
- TGI (SK-OV-3): 13.7 µM
- TGI (786-0): 11.8 µM
- GI50 (786-0; Homo sapiens): 3.44 µM
- LC50 (50% net cell kill) (786-0; Homo sapiens): 40 µM
- TGI (A498): 26.6 µM
- GI50 (A498; Homo sapiens): 13 µM
- CC50 (A498; [2]): 54.6 µM
- GI50 (ACHN; Homo sapiens): 2980 nM
- CC50 (ACHN; [2]): 36.5 µM
- TGI (ACHN): 12.5 µM
- GI50 (RXF-393; Homo sapiens): 1070 nM
- CC50 (RXF-393; [2]): 14.8 µM
- TGI (RXF-393): 3.58 µM
- GI50 (SN12C; Homo sapiens): 3.61 µM
- CC50 (SN12C; [2]): 42 µM
- TGI (SN12C): 15.1 µM
- GI50 (UO-31; Homo sapiens): 3.71 µM
- CC50 (UO-31; [2]): 46.3 µM
- TGI (UO-31): 17.9 µM
- GI50 (PC-3; Homo sapiens): 6.65 µM
- CC50 (PC-3; [2]): 55 µM
- TGI (PC-3): 21.6 µM
- GI50 ([1]; Homo sapiens): 3.15 µM
- CC50 [1, 2]: 45.3 µM
- TGI [1]: 14.3 µM
- TGI (T-47D): 7.84 µM
- GI50 (T-47D; Homo sapiens, T47D): 2710 nM
- CC50 (T-47D; Homo sapiens, T47D, read-out: LC50 (the source's name)): 61.8 µM
